Patent US8680275B2, “Fused heterocyclic compounds as orexin receptor modulators” (Janssen Pharmaceutica NV, priority 2009, dated 2014)

Experiments:
human orexin-2 receptor = human orexin-2 receptor (Homo sapiens (Human), UniProt O43614); test: Human orexin 2 receptor radioligand binding ([3H]-EMPA competition); details: HEK293 cells stably expressing human orexin-2 receptor; [3H]-EMPA 5 nM final; read-out: OR-2 Ki
Procedure, shortened: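 Competition binding on HEK293 cells stably expressing human orexin-2 receptor, using 5 nM final [3H]-EMPA in PBS, compounds 0.1 nM to 10 μM (DMSO ≤0.1%). 60 min at room temperature, then filtration and scintillation counting; nonspecific binding defined with 10 μM of a reference antagonist.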

human orexin 1 receptor = human orexin 1 receptor (Homo sapiens (Human), UniProt O43613); test: Human orexin 1 receptor radioligand binding ([3H]-SB674042 competition); details: CHO cells stably expressing human orexin 1 receptor; [3H]-SB674042 4 nM final; read-out: OR-1 Ki
Procedure, shortened: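 CHO cells stably expressing human OX1R incubated 60 min at room temperature with [3H]-SB674042 and compounds (7 concentrations, 0.1 nM–10 μM; DMSO ≤0.1%) in PBS. Nonspecific binding defined with 10 μM of a reference urea antagonist; bound radioactivity measured by filtration and scintillation counting.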

Sequence of human orexin-2 receptor (O43614 whole entry): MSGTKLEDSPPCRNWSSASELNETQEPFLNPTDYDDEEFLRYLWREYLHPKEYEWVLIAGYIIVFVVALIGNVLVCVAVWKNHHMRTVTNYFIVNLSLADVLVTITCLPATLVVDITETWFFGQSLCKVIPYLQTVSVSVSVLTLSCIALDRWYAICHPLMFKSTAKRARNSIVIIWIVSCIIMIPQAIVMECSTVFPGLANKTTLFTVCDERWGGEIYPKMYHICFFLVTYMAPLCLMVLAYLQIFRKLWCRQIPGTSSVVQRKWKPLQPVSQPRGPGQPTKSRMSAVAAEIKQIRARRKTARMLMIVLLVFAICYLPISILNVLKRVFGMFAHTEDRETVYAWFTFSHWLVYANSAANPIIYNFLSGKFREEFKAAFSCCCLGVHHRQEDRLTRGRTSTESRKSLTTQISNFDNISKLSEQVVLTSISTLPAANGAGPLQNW
Sequence of human orexin 1 receptor (O43613 whole entry): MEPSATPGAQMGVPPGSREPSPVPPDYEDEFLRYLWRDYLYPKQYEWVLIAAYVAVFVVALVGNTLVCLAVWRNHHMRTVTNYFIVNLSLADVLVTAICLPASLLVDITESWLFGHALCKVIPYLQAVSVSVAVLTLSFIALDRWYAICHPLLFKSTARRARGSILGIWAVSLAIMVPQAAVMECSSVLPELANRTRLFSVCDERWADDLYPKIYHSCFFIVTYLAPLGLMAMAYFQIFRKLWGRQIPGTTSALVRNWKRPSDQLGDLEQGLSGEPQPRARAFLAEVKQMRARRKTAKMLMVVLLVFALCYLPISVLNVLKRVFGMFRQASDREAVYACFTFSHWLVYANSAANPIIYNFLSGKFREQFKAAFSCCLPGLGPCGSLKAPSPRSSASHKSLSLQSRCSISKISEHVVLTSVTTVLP

| SMILES | Ki (human orexin-2 receptor) [nM] | Ki (human orexin 1 receptor) [nM] |
| --- | --- | --- |
| CN(C)c1ccnc(N2C[C@@H]3CCN(C(=O)c4cccc(F)c4-n4nccn4)C[C@@H]32)c1 [Example 144, 2-[(1R,6S)-3-{[3-Fluoro-2-(2H-1,2,3-triazol-2-yl)phenyl]carbonyl}-3,8-diazabicyclo[4.2.0]oct-8-yl]-N,N-dimethylpyridin-4-amine] | 2810 | 10000 |
| Cc1cc(N2C[C@@H]3CCN(C(=O)c4ccc(C)nc4-n4ccnn4)C[C@@H]32)nc(C(F)(F)F)n1 [Example 91, (1R,6S)-3-{[6-Methyl-2-(1H-1,2,3-triazol-1-yl)pyridin-3-yl]carbonyl}-8-[6-methyl-2-(trifluoromethyl)pyrimidin-4-yl]-3,8-diazabicyclo[4.2.0]octane] | 520 | 5400 |
| COc1ccc(C(=O)N2CC[C@H]3CN(c4cc(C(F)(F)F)ccn4)[C@H]3C2)c(-n2nccn2)c1 [Example 146, (1R,6S)-3-{[4-Methoxy-2-(2H-1,2,3-triazol-2-yl)phenyl]carbonyl}-8-[4-(trifluoromethyl)pyridin-2-yl]-3,8-diazabicyclo[4.2.0]octane] | 299 | 9000 |
| Cc1nc(C(=O)N2CC3CN(c4cnc5ccccc5n4)C3C2)c(-c2ccccc2F)s1 (centres unmarked) [Example 51, 2-(3-{[5-(2-Fluorophenyl)-2-methyl-1,3-thiazol-4-yl]carbonyl}-3,6-diazabicyclo[3.2.0]hept-6-yl)quinoxaline] | 501 | 432 |
| O=C(c1cc(F)ccc1-n1nccn1)N1CC[C@H]2CN(c3cccc(C(F)(F)F)n3)[C@H]2C1 [Example 129, (1R,6S)-3-{[5-Fluoro-2-(2H-1,2,3-triazol-2-yl)phenyl]carbonyl}-8-[6-(trifluoromethyl)pyridin-2-yl]-3,8-diazabicyclo[4.2.0]octane] | 36 | 265 |
| Cc1cc(N2C[C@@H]3CCN(C(=O)c4cc(F)ccc4-n4nccn4)C[C@@H]32)nc(N)n1 [Example 186, 4-[(1R,6S)-3-{[5-Fluoro-2-(2H-1,2,3-triazol-2-yl)phenyl]carbonyl}-3,8-diazabicyclo[4.2.0]oct-8-yl]-6-methylpyrimidin-2-amine] | 680 | 10000 |
| CCOc1ccc2ccccc2c1C(=O)N1CC2CN(c3nc(OC)cc(OC)n3)C2C1 (centres unmarked) [Example 64, 6-(4,6-Dimethoxypyrimidin-2-yl)-3-[(2-ethoxynaphthalen-1-yl)carbonyl]-3,6-diazabicyclo[3.2.0]heptane] | 109 | 808 |
| Cc1cncc(N2C[C@@H]3CCN(C(=O)c4cccc(F)c4-n4nccn4)C[C@@H]32)n1 [Example 110, (1R,6S)-3-{[3-Fluoro-2-(2H-1,2,3-triazol-2-yl)phenyl]carbonyl}-8-(6-methylpyrazin-2-yl)-3,8-diazabicyclo[4.2.0]octane] | 220 | 10000 |
| COc1ccccc1C(=O)N1CC2CN(c3nccc(-c4ccccc4)n3)C2C1 (centres unmarked) [Example 53, 3-[(2-Methoxyphenyl)carbonyl]-6-(4-phenylpyrimidin-2-yl)-3,6-diazabicyclo[3.2.0]heptane] | 1810 | 3700 |
| O=C(c1ccccc1-n1nccn1)N1CC2CN(c3nccc(-c4ccccc4)n3)C2C1 (centres unmarked) [Example 67, 6-(4-Phenylpyrimidin-2-yl)-3-{[2-(2H-1,2,3-triazol-2-yl)phenyl]carbonyl}-3,6-diazabicyclo[3.2.0]heptane] | 156 | 225 |
| COc1ccc(-n2nccn2)c(C(=O)N2CC[C@H]3CN(c4cc(C(F)(F)F)ccn4)[C@H]3C2)c1 [Example 140, (1R,6S)-3-{[5-Methoxy-2-(2H-1,2,3-triazol-2-yl)phenyl]carbonyl}-8-[4-(trifluoromethyl)pyridin-2-yl]-3,8-diazabicyclo[4.2.0]octane] | 70 | 1070 |

Further lines, results first:

| Ki (human orexin-2 receptor) [nM] | Ki (human orexin 1 receptor) [nM] | SMILES |
| --- | --- | --- |
| 700 | 10000 | COc1ccc(C(=O)N2CC[C@H]3CN(c4nc(C)cc(C)n4)[C@H]3C2)c(-n2ccnn2)n1 [Example 163, (1R,6S)-8-(4,6-Dimethylpyrimidin-2-yl)-3-{[6-methoxy-2-(1H-1,2,3-triazol-1-yl)pyridin-3-yl]carbonyl}-3,8-diazabicyclo[4.2.0]octane] |
| 90 | 475 | Cc1cc(N2C[C@@H]3CCN(C(=O)c4ccccc4-n4nccn4)C[C@@H]32)nc(N(C)C)n1 [Example 43, (1R,6S)-[8-(2-Dimethylamino-6-methyl-pyrimidin-4-yl)-3,8-diaza-bicyclo[4.2.0]oct-3-yl]-(2-[1,2,3]triazol-2-yl-phenyl)-methanone] |
| 6000 | 10000 | Cc1cc(C)nc(N2C[C@@H]3CCN(C(=O)c4cn[nH]c4-c4ccccc4)C[C@@H]32)n1 [Example 174, (1R,6S)-8-(4,6-Dimethylpyrimidin-2-yl)-3-[(5-phenyl-1H-pyrazol-4-yl)carbonyl]-3,8-diazabicyclo[4.2.0]octane] |
| 60 | 177 | O=C(c1ccc(F)cc1-n1nccn1)N1CC[C@H]2CN(c3cnc4ccccc4n3)[C@H]2C1 [Example 115, 2-[(1R,6S)-3-{[4-Fluoro-2-(2H-1,2,3-triazol-2-yl)phenyl]carbonyl}-3,8-diazabicyclo[4.2.0]oct-8-yl]quinoxaline] |
| 220 | 10000 | Cc1cc(C)nc(N2C[C@@H]3CCN(C(=O)c4cccnc4C(F)(F)F)C[C@@H]32)n1 [Example 89, (1R,6S)-8-(4,6-Dimethylpyrimidin-2-yl)-3-{[2-(trifluoromethyl)pyridin-3-yl]carbonyl}-3,8-diazabicyclo[4.2.0]octane] |
| 275 | 10000 | Cc1cc(C)nc(N2C[C@@H]3CCN(C(=O)c4nccnc4-c4ccccc4)C[C@@H]32)n1 [Example 137, (1R,6S)-8-(4,6-Dimethylpyrimidin-2-yl)-3-[(3-phenylpyrazin-2-yl)carbonyl]-3,8-diazabicyclo[4.2.0]octane] |
| 230 | 3900 | Cc1cc(C)nc(N2C[C@@H]3CCN(C(=O)c4cc(C)c(C)nc4-n4nccn4)C[C@@H]32)n1 [Example 157, (1R,6S)-8-(4,6-Dimethylpyrimidin-2-yl)-3-{[5,6-dimethyl-2-(2H-1,2,3-triazol-2-yl)pyridin-3-yl]carbonyl}-3,8-diazabicyclo[4.2.0]octane] |
| 114 | 96 | O=C(c1ccccc1-c1cccnc1)N1CC[C@H]2CN(c3cnc4ccccc4n3)[C@H]2C1 [Example 14, (1R,6S)(2-Pyridin-3-yl-phenyl)-(8-quinoxalin-2-yl-3,8-diaza-bicyclo[4.2.0]oct-3-yl)-methanone] |
| 72 | 3840 | Cc1cc(C)nc(N2C[C@@H]3CCN(C(=O)c4cc(F)ccc4-c4ccc(N(C)C)nc4)C[C@@H]32)n1 [Example 166, 5-(2-{[(1R,6S)-8-(4,6-Dimethylpyrimidin-2-yl)-3,8-diazabicyclo[4.2.0]oct-3-yl]carbonyl}-4-fluorophenyl)-N,N-dimethylpyridin-2-amine] |
| 163 | 9650 | Cc1cc(C)nc(N2CC3CN(C(=O)c4ccccc4-n4nccn4)CC32)n1 (centres unmarked) [Example 66, 6-(4,6-Dimethylpyrimidin-2-yl)-3-{[2-(2H-1,2,3-triazol-2-yl)phenyl]carbonyl}-3,6-diazabicyclo[3.2.0]heptane] |
| 84 | 220 | Cc1cc(N2C[C@@H]3CCN(C(=O)c4c(F)cccc4-c4ncccn4)C[C@@H]32)nc(C(F)(F)F)n1 [Example 92, (1R,6S)-3-[(2-Fluoro-6-pyrimidin-2-ylphenyl)carbonyl]-8-[6-methyl-2-(trifluoromethyl)pyrimidin-4-yl]-3,8-diazabicyclo[4.2.0]octane] |
| 8 | 169 | Cc1cc(C)nc(N2C[C@@H]3CCN(C(=O)c4ccccc4-c4ccccc4)C[C@@H]32)n1 [Example 3, (1R,6S)-Biphenyl-2-yl-[8-(4,6-dimethyl-pyrimidin-2-yl)-3,8-diaza-bicyclo[4.2.0]oct-3-yl]-methanone] |
| 42 | 1070 | CCOc1ccc2ccccc2c1C(=O)N1CC2CN(c3nc(C)cc(C)n3)C2C1 (centres unmarked) [Example 65, 6-(4,6-Dimethylpyrimidin-2-yl)-3-[(2-ethoxynaphthalen-1-yl)carbonyl]-3,6-diazabicyclo[3.2.0]heptane] |
| 140 | 1200 | COc1ccc(Br)c(C(=O)N2CC[C@H]3CN(c4nc(C)cc(C)n4)[C@H]3C2)c1F [Example 154, (1R,6S)-3-[(6-Bromo-2-fluoro-3-methoxyphenyl)carbonyl]-8-(4,6-dimethylpyrimidin-2-yl)-3,8-diazabicyclo[4.2.0]octane] |
| 24 | 117 | Cc1cc(N2C[C@@H]3CCN(C(=O)c4ccccc4-n4nccn4)C[C@@H]32)nc(C(F)(F)F)n1 [Example 35, (1R,6S)-[8-(6-Methyl-2-trifluoromethyl-pyrimidin-4-yl)-3,8-diaza-bicyclo[4.2.0]oct-3-yl]-(2-[1,2,3]triazol-2-yl-phenyl)-methanone] |
| 15 | 371 | Cc1cc(C)nc(N2C[C@@H]3CCN(C(=O)c4ccccc4-n4cccc4)C[C@@H]32)n1 [Example 7, (1R,6S)[8-(4,6-Dimethyl-pyrimidin-2-yl)-3,8-diaza-bicyclo[4.2.0]oct-3-yl]-(2-pyrrol-1-yl-phenyl)-methanone] |
| 26 | 1010 | Cc1cc(C)nc(N2C[C@@H]3CCN(C(=O)c4cc(F)ccc4-n4nccn4)C[C@@H]32)c1 [Example 128, (1R,6S)-8-(4,6-Dimethylpyridin-2-yl)-3-{[5-fluoro-2-(2H-1,2,3-triazol-2-yl)phenyl]carbonyl}-3,8-diazabicyclo[4.2.0]octane] |
